Source: ChEMBL document CHEMBL3865816, “Design, synthesis and biological evaluation of novel azaspiro analogs of linezolid as antibacterial and antitubercular agents” (Eur J Med Chem, 2016)
In brackets after ≈: the same amount, converted by molar mass.

How the values were obtained:
Type in all cases: functional
Staphylococcus aureus [1] = assay: Antibacterial activity against Staphylococcus aureus NCIM 2079 at 30 ug/ml measured after 12 hrs by spectrophotometric method; conditions: NCIM 2079, 12 h
[2] = test system: Mycobacterium tuberculosis; assay: Antitubercular activity against dormant stage Mycobacterium tuberculosis H37Ra at 3 ug/ml measured after 12 days by XTT assay; conditions: 288 h
Escherichia coli [3] = assay: Antibacterial activity against Escherichia coli NCIM 2688 at 10 ug/ml measured after 8 hrs by spectrophotometric method; conditions: NCIM 2688, 8 h
[4] = test system: Mycobacterium tuberculosis; assay: Antitubercular activity against dormant stage Mycobacterium tuberculosis H37Ra at 10 ug/ml measured after 12 days by XTT assay; conditions: 288 h
Escherichia coli [5] = assay: Antibacterial activity against Escherichia coli NCIM 2688 at 3 ug/ml measured after 8 hrs by spectrophotometric method; conditions: NCIM 2688, 8 h
Pseudomonas aeruginosa [6] = assay: Antibacterial activity against Pseudomonas aeruginosa NCIM 2036 at 10 ug/ml measured after 8 hrs by spectrophotometric method; conditions: NCIM 2036, 8 h
Pseudomonas aeruginosa [7] = assay: Antibacterial activity against Pseudomonas aeruginosa NCIM 2036 at 30 ug/ml measured after 8 hrs by spectrophotometric method; conditions: NCIM 2036, 8 h
Escherichia coli [8] = assay: Antibacterial activity against Escherichia coli NCIM 2688 at 30 ug/ml measured after 8 hrs by spectrophotometric method; conditions: NCIM 2688, 8 h
[9] = test system: Mycobacterium tuberculosis; assay: Antitubercular activity against active stage Mycobacterium tuberculosis H37Ra measured after 8 days by XTT assay; conditions: 192 h
Escherichia coli [10] = assay: Antibacterial activity against Escherichia coli NCIM 2688 measured after 8 hrs by spectrophotometric method; conditions: NCIM 2688, 8 h
[11] = test system: Mycobacterium tuberculosis; assay: Antitubercular activity against dormant stage Mycobacterium tuberculosis H37Ra measured after 12 days by XTT assay; conditions: 288 h
Pseudomonas aeruginosa [12] = assay: Antibacterial activity against Pseudomonas aeruginosa NCIM 2036 measured after 8 hrs by spectrophotometric method; conditions: NCIM 2036, 8 h
Bacillus subtilis [13] = assay: Antibacterial activity against Bacillus subtilis NCIM 2010 at 30 ug/ml measured after 12 hrs by spectrophotometric method; conditions: NCIM 2010, 12 h
Bacillus subtilis [14] = assay: Antibacterial activity against Bacillus subtilis NCIM 2010 at 3 ug/ml measured after 12 hrs by spectrophotometric method; conditions: NCIM 2010, 12 h
Bacillus subtilis [15] = assay: Antibacterial activity against Bacillus subtilis NCIM 2010 at 10 ug/ml measured after 12 hrs by spectrophotometric method; conditions: NCIM 2010, 12 h
Bacillus subtilis [16] = assay: Antibacterial activity against Bacillus subtilis NCIM 2010 measured after 12 hrs by spectrophotometric method; conditions: NCIM 2010, 12 h
Staphylococcus aureus [17] = assay: Antibacterial activity against Staphylococcus aureus NCIM 2079 at 10 ug/ml measured after 12 hrs by spectrophotometric method; conditions: NCIM 2079, 12 h
Staphylococcus aureus [18] = assay: Antibacterial activity against Staphylococcus aureus NCIM 2079 measured after 12 hrs by spectrophotometric method; conditions: NCIM 2079, 12 h
Pseudomonas aeruginosa [19] = assay: Antibacterial activity against Pseudomonas aeruginosa NCIM 2036 at 3 ug/ml measured after 8 hrs by spectrophotometric method; conditions: NCIM 2036, 8 h
Staphylococcus aureus [20] = assay: Antibacterial activity against Staphylococcus aureus NCIM 2079 at 3 ug/ml measured after 12 hrs by spectrophotometric method; conditions: NCIM 2079, 12 h
[21] = test system: Mycobacterium tuberculosis; assay: Antitubercular activity against dormant stage Mycobacterium tuberculosis H37Ra at 30 ug/ml measured after 12 days by XTT assay; conditions: 288 h

Question: Which results are given for `CC(=O)OCC(=O)NC[C@H]1CN(c2ccc(N3CC4(COC4)C3)c(F)c2)C(=O)O1`?
Answer: inhibition at 30 µg/mL (Staphylococcus aureus [1]): 98.2%; inhibition at 3 µg/mL [2]: -16.6%; inhibition at 10 µg/mL (Escherichia coli [3]): 63.9%; inhibition at 10 µg/mL [4]: 4.03%; inhibition at 3 µg/mL (Escherichia coli [5]): 49.4%; inhibition at 10 µg/mL (Pseudomonas aeruginosa [6]): 42.8%; inhibition at 30 µg/mL (Pseudomonas aeruginosa [7]): 58.3%; inhibition at 30 µg/mL (Escherichia coli [8]): 89.1%; IC50 [9]: 3.24 µg/mL (≈ 7.95 µM); MIC [9]: 7.8 µg/mL (≈ 19.1 µM); IC50 (Escherichia coli [10]): > 100 µg/mL; MIC (Escherichia coli [10]): > 100 µg/mL; IC50 [11]: 6.69 µg/mL (≈ 16.4 µM); MIC [11]: 10.6 µg/mL (≈ 26.1 µM); IC50 (Pseudomonas aeruginosa [12]): > 100 µg/mL; MIC (Pseudomonas aeruginosa [12]): > 100 µg/mL; inhibition at 30 µg/mL (Bacillus subtilis [13]): 99.3%; inhibition at 3 µg/mL (Bacillus subtilis [14]): 43.6%; inhibition at 10 µg/mL (Bacillus subtilis [15]): 73.6%; IC50 (Bacillus subtilis [16]): > 100 µg/mL; MIC (Bacillus subtilis [16]): > 100 µg/mL; inhibition at 10 µg/mL (Staphylococcus aureus [17]): 93.9%; IC50 (Staphylococcus aureus [18]): 0.75 µg/mL (≈ 1.84 µM); MIC (Staphylococcus aureus [18]): 8.4 µg/mL (≈ 20.6 µM); inhibition at 3 µg/mL (Pseudomonas aeruginosa [19]): 22.8%; inhibition at 3 µg/mL (Staphylococcus aureus [20]): 82.5%; inhibition at 30 µg/mL [21]: 88.9%

Question: Which results are given for `O=C(NC[C@H]1CN(c2ccc(N3CC4(COC4)C3)c(F)c2)C(=O)O1)c1ccno1`?
Answer: inhibition at 30 µg/mL (Staphylococcus aureus [1]): 98.5%; inhibition at 3 µg/mL [2]: 4.35%; inhibition at 10 µg/mL (Escherichia coli [3]): 93.3%; inhibition at 10 µg/mL [4]: 18.2%; inhibition at 3 µg/mL (Escherichia coli [5]): 88.3%; inhibition at 10 µg/mL (Pseudomonas aeruginosa [6]): 94.9%; inhibition at 30 µg/mL (Pseudomonas aeruginosa [7]): 98.9%; inhibition at 30 µg/mL (Escherichia coli [8]): 99.9%; IC50 [9]: 6.4 µg/mL (≈ 15.9 µM); MIC [9]: 10.9 µg/mL (≈ 27.1 µM); IC50 (Escherichia coli [10]): 0.71 to 0.72 µg/mL (≈ 1.76 to 1.79 µM); MIC (Escherichia coli [10]): 4.56 to 4.6 µg/mL (≈ 11.3 to 11.4 µM); IC50 [11]: 9.58 µg/mL (≈ 23.8 µM); MIC [11]: 21.2 µg/mL (≈ 52.8 µM); IC50 (Pseudomonas aeruginosa [12]): 0.51 µg/mL (≈ 1.27 µM); MIC (Pseudomonas aeruginosa [12]): 2.57 µg/mL (≈ 6.39 µM); inhibition at 30 µg/mL (Bacillus subtilis [13]): 100%; inhibition at 3 µg/mL (Bacillus subtilis [14]): 90.5%; inhibition at 10 µg/mL (Bacillus subtilis [15]): 97.3%; IC50 (Bacillus subtilis [16]): 0.49 µg/mL (≈ 1.22 µM); MIC (Bacillus subtilis [16]): 2.35 µg/mL (≈ 5.84 µM); inhibition at 10 µg/mL (Staphylococcus aureus [17]): 98.2%; IC50 (Staphylococcus aureus [18]): 0.88 µg/mL (≈ 2.19 µM); MIC (Staphylococcus aureus [18]): 2.05 µg/mL (≈ 5.09 µM); inhibition at 3 µg/mL (Pseudomonas aeruginosa [19]): 90.8%; inhibition at 3 µg/mL (Staphylococcus aureus [20]): 95.1%; inhibition at 30 µg/mL [21]: 95.4%

Question: Which inhibition at 30 µg/mL (Staphylococcus aureus [1]) does the source give for `O=C1O[C@@H](CNC(=S)Nc2cccc(C(F)(F)F)c2)CN1c1ccc(N2CC3(COC3)C2)c(F)c1` here?
Answer: 94.5%

Question: And the inhibition at 3 µg/mL [2]?
Answer: 10.7%

Question: What about the inhibition at 10 µg/mL (Escherichia coli [3]) of the same compound?
Answer: 95.8%

Question: And the inhibition at 10 µg/mL [4]?
Answer: 44.5%

Question: What about the inhibition at 3 µg/mL (Escherichia coli [5]) of the same compound?
Answer: 93.3%

Question: What about the inhibition at 10 µg/mL (Pseudomonas aeruginosa [6]) of the same compound?
Answer: 67%

Question: And the inhibition at 30 µg/mL (Pseudomonas aeruginosa [7])?
Answer: 79.6%

Question: What about the inhibition at 30 µg/mL (Escherichia coli [8]) of the same compound?
Answer: 96.3%

Question: What about the IC50 (Escherichia coli [10]) of the same compound?
Answer: 0.49 µg/mL (≈ 0.96 µM)

Question: What about the MIC (Escherichia coli [10]) of the same compound?
Answer: 2.41 µg/mL (≈ 4.72 µM)

Question: And the IC50 [11]?
Answer: > 100 µg/mL

Question: And the MIC [11]?
Answer: > 100 µg/mL

Question: What about the IC50 (Pseudomonas aeruginosa [12]) of the same compound?
Answer: > 100 µg/mL

Question: What about the MIC (Pseudomonas aeruginosa [12]) of the same compound?
Answer: > 100 µg/mL

Question: And the inhibition at 30 µg/mL (Bacillus subtilis [13])?
Answer: 97.2%

Question: And the inhibition at 3 µg/mL (Bacillus subtilis [14])?
Answer: 65.9%

Question: And the inhibition at 10 µg/mL (Bacillus subtilis [15])?
Answer: 80.2%

Question: And the IC50 (Bacillus subtilis [16])?
Answer: > 100 µg/mL

Question: And the MIC (Bacillus subtilis [16])?
Answer: > 100 µg/mL

Question: What about the inhibition at 10 µg/mL (Staphylococcus aureus [17]) of the same compound?
Answer: 79.2%

Question: And the IC50 (Staphylococcus aureus [18])?
Answer: > 100 µg/mL

Question: What about the MIC (Staphylococcus aureus [18]) of the same compound?
Answer: > 100 µg/mL

Question: And the inhibition at 3 µg/mL (Pseudomonas aeruginosa [19])?
Answer: 45.2%

Question: And the inhibition at 3 µg/mL (Staphylococcus aureus [20])?
Answer: 64.1%

Question: And the inhibition at 30 µg/mL [21]?
Answer: 78%

Question: Which results are given for `CC(=O)NC[C@H]1CN(c2ccc(N3CC4(COC4)C3)c(F)c2)C(=O)O1`?
Answer: inhibition at 30 µg/mL (Staphylococcus aureus [1]): 99.5%; inhibition at 3 µg/mL [2]: 15.1%; inhibition at 10 µg/mL (Escherichia coli [3]): 17.4%; inhibition at 10 µg/mL [4]: 94.7%; inhibition at 3 µg/mL (Escherichia coli [5]): 3.06%; inhibition at 10 µg/mL (Pseudomonas aeruginosa [6]): 91.9%; inhibition at 30 µg/mL (Pseudomonas aeruginosa [7]): 98.5%; inhibition at 30 µg/mL (Escherichia coli [8]): 28.8%; IC50 [9]: 1.56 µg/mL (≈ 4.47 µM); MIC [9]: 2.55 µg/mL (≈ 7.3 µM); IC50 (Escherichia coli [10]): > 100 µg/mL; MIC (Escherichia coli [10]): > 100 µg/mL; IC50 [11]: 2.07 µg/mL (≈ 5.93 µM); MIC [11]: 3.1 µg/mL (≈ 8.87 µM); IC50 (Pseudomonas aeruginosa [12]): 0.58 µg/mL (≈ 1.66 µM); MIC (Pseudomonas aeruginosa [12]): 6.4 µg/mL (≈ 18.3 µM); inhibition at 30 µg/mL (Bacillus subtilis [13]): 100%; inhibition at 3 µg/mL (Bacillus subtilis [14]): 88.8%; inhibition at 10 µg/mL (Bacillus subtilis [15]): 95.4%; IC50 (Bacillus subtilis [16]): 0.65 µg/mL (≈ 1.86 µM); MIC (Bacillus subtilis [16]): 3.46 µg/mL (≈ 9.9 µM); inhibition at 10 µg/mL (Staphylococcus aureus [17]): 91.8%; IC50 (Staphylococcus aureus [18]): 0.53 µg/mL (≈ 1.52 µM); MIC (Staphylococcus aureus [18]): 2.9 µg/mL (≈ 8.3 µM); inhibition at 3 µg/mL (Pseudomonas aeruginosa [19]): 85.5%; inhibition at 3 µg/mL (Staphylococcus aureus [20]): 90.4%; inhibition at 30 µg/mL [21]: 95.2%
